Experimental data as given in patent US20060069084A1, “Methods of inhibiting kinases” (priority 2001, published 2006).

Columns and labels:
Format in all cases: biochemical
Settings in all cases: inhibit 50% of activity at 50 μM
[1] = target: T1, TYK2 (Homo sapiens, UniProt P29597); experiment: TYK2 kinase domain capture-based ELISA kinase assay
T1 construct: The kinase domain of humanTYK2 was amplified from A549 mRNA; His tag (from pBlueBacHis2A vector; nickel chelate purification) (N); made in house; host or cells: baculovirus; virus made in Sf9, large-scale expression in High Five insect cells
T1 sequence (P29597 897-1176 limits assumed): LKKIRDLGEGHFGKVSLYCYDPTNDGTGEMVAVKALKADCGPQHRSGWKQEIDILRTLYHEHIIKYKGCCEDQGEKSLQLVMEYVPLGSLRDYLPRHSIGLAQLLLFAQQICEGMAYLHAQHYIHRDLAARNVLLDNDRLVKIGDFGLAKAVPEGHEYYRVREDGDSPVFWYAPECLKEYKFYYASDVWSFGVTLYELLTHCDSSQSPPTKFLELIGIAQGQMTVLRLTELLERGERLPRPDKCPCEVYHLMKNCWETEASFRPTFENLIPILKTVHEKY
Protocol: (§1) For screening purposes, compounds were diluted in 96 well plates at a concentration of 50 μM or 20 μM. Plates were warmed at 37° C. for 30 minutes before assay.
The kinase domain of humanTYK2 was amplified from A549 mRNA using the polymerase chain reaction with the following primers: […]
TYK2 PCR products were cloned into pBlueBacHis2A (Invitrogen) via the EcoRI site. The recombinant TYK2 baculovirus produced was prepared for transfected into Sf9 insect cells.
(§2) Baculovirus preparations from each of the JAK family members were infected into five litres of High Five cells (Invitrogen) grown in High Five serum free medium (Invitrogen) to a cell density of approximately 1-2×10^6 cells/ml. Cells are infected with virus at a MOI of 0.8-3.0. Cells were harvested and lysed. JAK kinase domains were purified by affinity chromatography on a Probond (Invitrogen) nickel chelate affinity column.
(§3) The biotinylated substrate biotin-EGPWLEEEEEAYGWMDF-NH2 (SEQ ID NO:9) (final concentration 5 μM) was used as substrate, and tyrosine phosphorylation was quantitated following transfer to an avidin coated ELISA plate using peroxidase-linked anti-phospho-tyrosine antibody PY20.
(§4) Inhibitors were added to the assays fifteen minutes prior to the addition of ATP. Inhibitors were added in aqueous DMSO, with DMSO concentrations never exceeding 1%.

[2] = target: T2, JAK1 (Homo sapiens, UniProt P23458); experiment: JAK1 kinase domain capture-based ELISA kinase assay
T2 construct: The kinase domain of humanJAK1 was amplified from U937mRNA; His tag (from pFastBac HTb vector; nickel chelate purification) (N); made in house; host or cells: baculovirus; virus made in Sf9, large-scale expression in High Five insect cells
T2 sequence (P23458 875-1153 limits assumed): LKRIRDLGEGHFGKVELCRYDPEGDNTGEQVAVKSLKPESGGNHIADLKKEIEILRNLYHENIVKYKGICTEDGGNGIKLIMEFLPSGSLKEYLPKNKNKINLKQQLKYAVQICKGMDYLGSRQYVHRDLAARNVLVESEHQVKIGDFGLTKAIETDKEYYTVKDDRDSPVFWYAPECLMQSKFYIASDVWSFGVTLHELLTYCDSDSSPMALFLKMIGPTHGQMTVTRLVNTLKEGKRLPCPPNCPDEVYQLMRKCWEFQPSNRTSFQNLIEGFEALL
Protocol: as §1
The kinase domain of humanJAK1 was amplified from U937mRNA using the polymerase chain reaction with the following primers: […]
JAK1 PCR products were cloned into the pFastBac HTb expression vector (Gibco) via the Xho I and Kpn I sites. The JAK1 plasmid was then transformed into competent DH10Bac cells (Gibco), and the recombinant baculovirus produced prepared for transfection into Sf9 insect cells.
as §2, §3, §4

[3] = target: T3, JAK3 (Homo sapiens, UniProt P52333); experiment: JAK3 kinase domain capture-based ELISA kinase assay
T3 construct: The kinase domain of humanJAK3 was amplified from U937mRNA; His tag (from pFastBac HTb vector; nickel chelate purification) (N); made in house; host or cells: baculovirus; virus made in Sf9, large-scale expression in High Five insect cells
T3 sequence (P52333 822-1111 limits assumed): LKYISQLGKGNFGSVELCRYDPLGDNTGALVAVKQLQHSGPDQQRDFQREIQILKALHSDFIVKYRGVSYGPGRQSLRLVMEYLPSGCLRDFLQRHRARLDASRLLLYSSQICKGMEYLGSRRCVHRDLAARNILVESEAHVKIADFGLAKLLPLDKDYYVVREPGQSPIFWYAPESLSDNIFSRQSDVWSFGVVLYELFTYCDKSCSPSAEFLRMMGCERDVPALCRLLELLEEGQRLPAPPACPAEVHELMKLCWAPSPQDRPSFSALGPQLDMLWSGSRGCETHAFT
Protocol: as §1
The kinase domain of humanJAK3 was amplified from U937mRNA using the polymerase chain reaction with the following primers: […]
JAK3 PCR products were cloned into the pFastBac HTb expression vector (Gibco) via the Xho I and Kpn I sites. The JAK3 plasmid was then transformed into competent DH10Bac cells (Gibco), and the recombinant baculovirus produced prepared for transfection into Sf9 insect cells.
as §2, §3, §4

[4] = target: T4, JAK2 (Homo sapiens, UniProt O60674); experiment: JAK2 kinase domain capture-based ELISA kinase assay
T4 construct: The kinase domain of humanJAK2 was amplified from U937mRNA; His tag (from pFastBac HTc vector; nickel chelate purification) (N); made in house; host or cells: baculovirus; virus made in Sf9, large-scale expression in High Five insect cells
T4 sequence (O60674 849-1124 limits assumed): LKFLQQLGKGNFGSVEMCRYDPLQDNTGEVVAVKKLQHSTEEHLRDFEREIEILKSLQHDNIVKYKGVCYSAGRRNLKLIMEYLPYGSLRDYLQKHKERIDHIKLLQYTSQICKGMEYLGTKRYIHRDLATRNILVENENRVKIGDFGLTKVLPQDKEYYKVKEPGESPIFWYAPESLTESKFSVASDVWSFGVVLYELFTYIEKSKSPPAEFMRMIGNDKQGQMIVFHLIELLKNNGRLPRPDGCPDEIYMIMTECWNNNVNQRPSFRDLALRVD
Protocol: as §1
The kinase domain of humanJAK2 was amplified from U937mRNA using the polymerase chain reaction with the following primers: […]
JAK2 PCR products were cloned into the pFastBac HTc expression vector (Gibco) via the Sal I and Not I sites. The JAK2 plasmid was then transformed into competent DH10Bac cells (Gibco), and the recombinant baculovirus produced prepared for transfection into Sf9 insect cells.
as §2, §3, §4

| IC50 ([1]; Table 3) | IC50 ([2]; Table 3) | IC50 ([3]; Table 3) | IC50 ([4]; Table 3) | Compound | further results |
| --- | --- | --- | --- | --- | --- |
|  |  |  |  | FC(F)C(F)(F)Oc1cccc(Nc2nc(-c3cc(C(F)(F)F)cc(C(F)(F)F)c3)cn3ccnc23)c1 | IC50 ([1]; Table 6): > 50 µM; IC50 ([2]; Table 6): < 50 µM; IC50 ([3]; Table 6): > 50 µM; IC50 ([4]; Table 6): > 50 µM |
|  |  |  |  | CCN(CCO)c1ccc(Nc2nc(-c3ccccc3)cn3ccnc23)cc1 | IC50 ([1]; Table 6): < 50 µM; IC50 ([2]; Table 6): < 50 µM; IC50 ([3]; Table 6): < 50 µM; IC50 ([4]; Table 6): < 50 µM |
|  |  |  |  | CN(C)C(=O)COc1cccc(Nc2nc(-c3ccccc3)cn3ccnc23)c1 | IC50 ([1]; Table 6): < 50 µM; IC50 ([2]; Table 6): < 50 µM; IC50 ([3]; Table 6): > 50 µM; IC50 ([4]; Table 6): < 50 µM |
|  |  |  |  | CCN(CCO)c1ccc(Nc2nc(-c3ccccc3Cl)cn3ccnc23)cc1 | IC50 ([1]; Table 6): < 50 µM; IC50 ([2]; Table 6): < 50 µM; IC50 ([3]; Table 6): < 50 µM; IC50 ([4]; Table 6): < 50 µM |
|  |  |  |  | CN(C)C(=O)COc1cccc(Nc2nc(-c3ccccc3Cl)cn3ccnc23)c1 | IC50 ([1]; Table 6): < 50 µM; IC50 ([2]; Table 6): < 50 µM; IC50 ([3]; Table 6): < 50 µM; IC50 ([4]; Table 6): < 50 µM |
|  |  |  |  | CCN(CCO)c1ccc(Nc2nc(-c3ccc(F)c(Cl)c3)cn3ccnc23)cc1 | IC50 ([1]; Table 6): < 50 µM; IC50 ([2]; Table 6): < 50 µM; IC50 ([3]; Table 6): > 50 µM; IC50 ([4]; Table 6): < 50 µM |
| < 50 µM | < 50 µM | < 50 µM | < 50 µM | Fc1ccc(-c2cncc(N3CCN(CCN4CCCC4)CC3)n2)cc1Cl [CY734702] |  |
| < 50 µM | < 50 µM | < 50 µM | < 50 µM | COc1cccc(-c2cccc(N3CCN(C)CC3)n2)c1 [CYT13809] |  |
| < 50 µM | < 50 µM | < 50 µM | < 50 µM | COc1cncc(-c2cccc(Nc3cccnc3)n2)c1 [CYT14607] |  |
| < 50 µM | < 50 µM | < 50 µM | < 50 µM | c1cncc(Nc2cccc(-c3ccncc3)n2)c1 [CYT14804] |  |
| < 50 µM | < 50 µM | < 50 µM | < 50 µM | COc1cncc(-c2cncc(NCc3cccs3)n2)c1 [CYT20303] |  |
| < 50 µM | < 50 µM | < 50 µM | < 50 µM | Fc1ccc(CNc2cncc(-c3cccnc3)n2)cc1 [CYT20307] |  |
| < 50 µM | < 50 µM | < 50 µM | < 50 µM | CC(=O)Nc1cccc(-c2cncc(NCc3cccc(Cl)c3)n2)c1 [CYT20310] |  |
| < 50 µM | < 50 µM | < 50 µM | < 50 µM | COc1cncc(-c2cncc(NCc3ccco3)n2)c1 [CYT20406] |  |
| < 50 µM | < 50 µM | < 50 µM | < 50 µM | C[C@H](Nc1cncc(-c2cccc(CO)c2)n1)c1ccccc1 [CYT20504] |  |
| < 50 µM | < 50 µM | < 50 µM | < 50 µM | OCc1cccc(-c2cncc(NCc3ccccc3)n2)c1 [CYT20506] |  |
| < 50 µM | < 50 µM | < 50 µM | < 50 µM | CC(=O)Nc1cccc(-c2cncc(N[C@@H](C)c3ccccc3)n2)c1 [CYT20508] |  |
| < 50 µM | < 50 µM | < 50 µM | < 50 µM | COc1cc(-c2cncc(N[C@@H](C)c3ccccc3)n2)cc(OC)c1OC [CYT20510] |  |
| < 50 µM | < 50 µM | < 50 µM | < 50 µM | COc1cncc(-c2cncc(NCC(C)(C)CO)n2)c1 [CYT21103] |  |
| < 50 µM | < 50 µM | < 50 µM | < 50 µM | COc1cc(-c2cncc(NCCc3ccncc3)n2)cc(OC)c1OC [CYT21404] |  |
| < 50 µM | < 50 µM | < 50 µM | < 50 µM | COc1cncc(-c2cncc(N[C@H](CO)C(C)C)n2)c1 [CYT21507] |  |

| IC50 ([1]; Table 3) | IC50 ([2]; Table 3) | IC50 ([3]; Table 3) | IC50 ([4]; Table 3) | Compound | further results |
| --- | --- | --- | --- | --- | --- |
| < 50 µM | < 50 µM | < 50 µM | < 50 µM | COc1cncc(-c2cncc(NCc3ccc(F)cc3)n2)c1 [CYT24108] |  |
| < 50 µM | < 50 µM | < 50 µM | < 50 µM | COc1cncc(-c2cncc(N[C@@H](C)c3ccccc3)n2)c1 [CYT24510] |  |
| < 50 µM | < 50 µM | < 50 µM | < 50 µM | COc1cncc(-c2cncc(NCc3ccccc3)n2)c1 [CYT24605] |  |
| < 50 µM | < 50 µM | < 50 µM | < 50 µM | c1ccc(CNc2cncc(-c3cccnc3)n2)cc1 [CYT24803] |  |
| < 50 µM | < 50 µM | < 50 µM | < 50 µM | COc1cc(-c2cncc(NCc3ccccc3)n2)cc(OC)c1OC [CYT25209] |  |
| < 50 µM | < 50 µM | < 50 µM | < 50 µM | OCc1ccccc1-c1cncc(NCc2ccccc2)n1 [CYT25210] |  |
| < 50 µM | < 50 µM | < 50 µM | < 50 µM | COc1cc(-c2cncc(NCCO)n2)cc(OC)c1OC [CYT28608] |  |
| < 50 µM | < 50 µM | < 50 µM | < 50 µM | C[C@@H](Nc1cncc(-c2cccc(N)c2)n1)c1ccccc1 [CYT31106] |  |
| < 50 µM | < 50 µM | < 50 µM | < 50 µM | CC(=O)Nc1cccc(-c2cncc(N[C@H](C)c3ccccc3)n2)c1 [CYT32102] |  |
| < 50 µM | < 50 µM | < 50 µM | < 50 µM | COc1cc(-c2cncc(N[C@H](C)c3ccccc3)n2)cc(OC)c1OC [CYT32107] |  |
| < 50 µM | < 50 µM | < 50 µM | < 50 µM | COc1cc(-c2cncc(Nc3ccc(C#N)cc3)n2)cc(OC)c1OC [CYT32302] |  |
| < 50 µM | < 50 µM | < 50 µM | < 50 µM | Oc1ccc(-c2cncc(N3CCN(Cc4ccccn4)CC3)n2)cc1 [CYT32602] |  |
| < 50 µM | < 50 µM | < 50 µM | < 50 µM | COc1ccc(N2CCN(c3cncc(-c4ccc(CC(N)C(=O)O)cc4)n3)CC2)cc1OC (centres unmarked) [CYT34205] |  |
| < 50 µM | < 50 µM | < 50 µM | < 50 µM | CN(C)CCNC(=O)c1cccc(-c2cncc(N3CCN(c4ccccc4C#N)CC3)n2)c1 [CYT34503] |  |
|  |  |  |  | c1cc(-c2cn3ccnc3c(Nc3ccc(N4CCOCC4)cc3)n2)ccn1 [drawing 61] | IC50 ([1]; Table 5): < 50 µM; IC50 ([2]; Table 5): < 50 µM; IC50 ([3]; Table 5): < 50 µM; IC50 ([4]; Table 5): < 50 µM |
|  |  |  |  | c1cncc(-c2cn3ccnc3c(Nc3ccc(N4CCOCC4)cc3)n2)c1 [drawing 62] | IC50 ([1]; Table 5): < 50 µM; IC50 ([2]; Table 5): < 50 µM; IC50 ([3]; Table 5): < 50 µM; IC50 ([4]; Table 5): < 50 µM |
|  |  |  |  | OCc1ccccc1-c1cn2ccnc2c(Nc2ccc(N3CCOCC3)cc2)n1 [drawing 64] | IC50 ([1]; Table 5): < 50 µM; IC50 ([2]; Table 5): < 50 µM; IC50 ([3]; Table 5): < 50 µM; IC50 ([4]; Table 5): < 50 µM |
|  |  |  |  | CCN(CCO)c1ccc(Nc2nc(-c3cccc4ccccc34)cn3ccnc23)cc1 [drawing 68] | IC50 ([1]; Table 5): < 50 µM; IC50 ([2]; Table 5): < 50 µM; IC50 ([3]; Table 5): < 50 µM; IC50 ([4]; Table 5): < 50 µM |
|  |  |  |  | CCN(CCO)c1ccc(Nc2nc(-c3ccccc3CO)cn3ccnc23)cc1 [drawing 69] | IC50 ([1]; Table 5): < 50 µM; IC50 ([2]; Table 5): < 50 µM; IC50 ([3]; Table 5): < 50 µM; IC50 ([4]; Table 5): < 50 µM |
|  |  |  |  | Nc1cccc(-c2cn3ccnc3c(Nc3ccccc3)n2)c1 [drawing 71] | IC50 ([1]; Table 5): < 50 µM; IC50 ([2]; Table 5): < 50 µM; IC50 ([3]; Table 5): < 50 µM; IC50 ([4]; Table 5): < 50 µM |
